Consider 41 compounds from PubChem BioAssay AID1996.

≈ marks a conversion by molar mass, not a printed value.

The conditions of this data set: buffer; pH 7.4; 200.0 µM.
Consider `O=CN1Cc2ccccc2-c2ccccc2C1`, for which the kinetic solubility (in general, solubility judged after dilution from a stock solution rather than from solid) is over 33.5 µg/mL. The result for `COc1cc2nc(C(C)(C)C)oc(=O)c2cc1OC` reads over 39.5 µg/mL. The compound `Cc1cc(C)cc(C(=O)NC2CC(C)(C)NC(C)(C)C2)c1` displayed a solubility (kinetic) of over 43.3 µg/mL. With `CN(C)CCOC(c1ccc(Cl)cc1)c1ccccn1.O=C(O)/C=C/C(=O)O` (stereo unspecified), the solubility (kinetic) is over 61 µg/mL. The result for `O=C(Nc1ccc(CN2CCOCC2)cc1)c1ccc(F)cc1` reads over 47.2 µg/mL; that for `Clc1ccccc1OCCCOc1cccc2cccnc12`, 3.9 µg/mL (≈ 12.4 µM). `C=CCN1CCN(C(=O)c2cc3c(s2)CCC(CC)C3)CC1` (stereo unspecified): the solubility (kinetic) is 46.3 µg/mL (≈ 145 µM). The compound `COc1ccc(C)cc1NC(=O)Nc1ccc2c(c1)CCC2` showed a solubility (kinetic) of 0.7 µg/mL (≈ 2.36 µM). In turn, `COc1ccc(C2CC(=O)C(C=NCCCO)=C(O)C2)cc1` (stereo unspecified) yielded a kinetic solubility of over 45.5 µg/mL. `Cc1ccccc1N1CCN(CC(=O)NCc2ccc(Cl)cc2)CC1`: the kinetic solubility was found to be 19.6 µg/mL (≈ 54.8 µM). The compound `Cc1cc(OCCCN2CCCC2)ccc1Cl` showed a solubility (kinetic) of 26.8 µg/mL (≈ 106 µM). Compound `O=C(Nc1cccc(C(=O)O)c1)Nc1cccc2ccccc12` gave a solubility (kinetic) of over 45.9 µg/mL. `O=C(COC(=O)c1cnccn1)c1cccc([N+](=O)[O-])c1` displayed a kinetic solubility of over 43.1 µg/mL. Turning to `CCOC(=O)c1cc2c(=O)c3cc(C)ccc3oc2nc1C`, the solubility (kinetic) was under 0.6 µg/mL.

On to `Cc1ccc(C(=O)NCCONC(=O)c2ccc(C)cc2)cc1`, for which the kinetic solubility came to 45.6 µg/mL (≈ 146 µM). `O=C(NCCNC(=O)c1cnccn1)c1cccc(Cl)c1`: the solubility (kinetic) was 42.7 µg/mL (≈ 140 µM). The result for `Nc1ccc(S(=O)(=O)Nc2ccc(C(=O)c3ccccc3)cc2)cc1` reads 9.4 µg/mL (≈ 26.7 µM).

`CC/C(O)=C1\C(=O)CCCC1=NCCc1nc2ccccc2[nH]1` gave a kinetic solubility of over 46.7 µg/mL. Compound `CCCc1cc(=O)c2ccc(OC/C(C)=N/O)cc2o1` displayed a solubility (kinetic) of 38.3 µg/mL (≈ 139 µM). Take `Cc1ccc(CNC(=O)c2cc3ccccc3oc2=O)cc1`: the solubility (kinetic) turned out to be 1.2 µg/mL (≈ 4.09 µM). On to `CC(C)CN1CCNC(=O)C1CC(=O)N(C)CC1CCOCC1` (stereo unspecified), for which the solubility (kinetic) worked out at 45.7 µg/mL (≈ 140 µM). As to `O=C(O)c1ccc(S(=O)(=O)NC2CCCCCC2)cc1`, the solubility (kinetic) was over 44.6 µg/mL. The compound `O=C(c1ccc(C(=O)N2CCN(c3ccccc3F)CC2)nc1)N1CCN(c2ccccc2F)CC1` showed a solubility (kinetic) of 3.5 µg/mL (≈ 7.12 µM). The result for `O=C(O)c1ccc(C2SCC(=O)N2Cc2ccco2)cc1` (stereo unspecified) reads over 45.5 µg/mL; that for `CCc1ccc(S(=O)(=O)Nc2nccs2)cc1`, 27.5 µg/mL (≈ 102 µM). The result for `Cc1ccc(OCCNC(=O)c2cc(=O)[nH]c3ccccc23)cc1` reads 2 µg/mL (≈ 6.2 µM); that for `COC(=O)C1=Nc2ccccc2/C1=C\c1c(O)n(C)c(=O)n(C)c1=O`, over 51.2 µg/mL; that for `O=C(O)CC1c2ccccc2CCN1S(=O)(=O)c1cccs1` (stereo unspecified), over 50.6 µg/mL. `COc1ccc2c(C(=O)CN3CCSCC3)c[nH]c2c1` returned a kinetic solubility of 36.8 µg/mL (≈ 127 µM). `O=C(CCc1nc(-c2ccccc2Cl)no1)NCC1CCCO1` (stereo unspecified) showed a kinetic solubility of 47.7 µg/mL (≈ 142 µM).

For `S=C1NCCNC(=S)NCCOCCOCCOCCN1`, the solubility (kinetic) was over 50.5 µg/mL.

For `COc1ccccc1CNC(=O)COC(=O)Cc1cccc(F)c1`, the solubility (kinetic) was over 49.7 µg/mL.

Compound `Cc1ccc(C)c(S(=O)(=O)N2CCCN(C)CC2)c1` came in with a solubility (kinetic) of over 42.4 µg/mL.

In turn, `CCCOc1ccc(C(=O)NCCC(=O)NCCCC(=O)O)cc1` registered a kinetic solubility of over 50.5 µg/mL. In turn, `CC(C)(CC(=O)O)CC(=O)Nc1cc(C(F)(F)F)cc(C(F)(F)F)c1` gave a kinetic solubility of 46.1 µg/mL (≈ 124 µM).

`CCN(CC(=O)N1CCCC1)S(=O)(=O)c1ccc(F)cc1` had a kinetic solubility of 44.1 µg/mL (≈ 140 µM). With `CC1CCCC(NC(=O)c2ccncc2)C1C` (stereo unspecified), the solubility (kinetic) was over 34.8 µg/mL. As to `CCCCCOc1ccccc1C(=O)NCCCCCC(=O)O`, the solubility (kinetic) was over 48.2 µg/mL. Compound `CCC1(CC)Nc2ccccc2C(=O)N1c1ccc(OC)cc1` registered a solubility (kinetic) of 16.5 µg/mL (≈ 53.2 µM). The result for `NC(=O)C1CCN(C(=O)CCc2ccsc2)CC1` reads over 40 µg/mL; that for `COC(=O)c1cccc(NC(=O)CSc2nnc(C)n2C)c1`, over 48.1 µg/mL.
